Experimental findings from patent publication US8288158B2, “Stem cells modified to facilitate threonine catabolism” (Board of Regents, The University of Texas System, priority 2009, dated 2012) are described below.

For assay [1], the system named is mouse ES cells. Briefly: ES cell colony formation in normal or threonine-deficient medium with 3-HNV. Format: cell-based. Particulars: varying levels of 3-HNV. The procedure: Instead of the normal, 400 uM level of glycine, threonine-deficient medium was supplemented with 4 mM glycine. ES cells subjected to this threonine-deficient, glycine-enriched medium grew no better than those subjected to the threonine drop out medium itself. It is possible that ES cells are unable to deliver the supplemented glycine to mitochondria in order to feed the glycine cleavage system and folate charging. Alternatively, it is also possible that TDH-mediated production of acetyl-CoA is equally important to the HFB-like metabolic state. This alternative interpretation is consistent with the observation that among all metabolites that decline in abundance most precipitously as a function of the conversion of ES cells into differentiating embryoid bodies, acetyl-CoA was second only to the purine intermediate AICAR. In order to investigate these alternatives, we employed 3-hydroxynorvaline (3-HNV), a synthetic variant of threonine containing an extra carbon atom. […]
• 1. […] TDH activity was determined by measuring the rate of formation of NADH at 25° C. The assay mixture contained 100 mM Tris-HCl (pH 8.0), 25 mM L-threonine, 5 mM NAD and 25 mM NaCl in a final volume of […] The reaction was initiated by the addition of mitochondrial protein extract, and absorbance of the reaction mixture at 340 nM was recorded continuously on a microplate reader. • 10. […]

Assay [2] deals with 3T3 cells. Briefly: 3T3 cell growth with 3-HNV. Format: cell-based. The procedure:
(§1) Instead of the normal, 400 uM level of glycine, threonine-deficient medium was supplemented with 4 mM glycine. ES cells subjected to this threonine-deficient, glycine-enriched medium grew no better than those subjected to the threonine drop out medium itself. It is possible that ES cells are unable to deliver the supplemented glycine to mitochondria in order to feed the glycine cleavage system and folate charging. Alternatively, it is also possible that TDH-mediated production of acetyl-CoA is equally important to the HFB-like metabolic state. This alternative interpretation is consistent with the observation that among all metabolites that decline in abundance most precipitously as a function of the conversion of ES cells into differentiating embryoid bodies, acetyl-CoA was second only to the purine intermediate AICAR. In order to investigate these alternatives, we employed 3-hydroxynorvaline (3-HNV), a synthetic variant of threonine containing an extra carbon atom. It is known that the TDH enzyme can […] this threonine analog, yet instead of producing glycine and acetyl-CoA, catabolism of 3-HNV yields glycine and propionyl-CoA (15). ES cells were cultured in either normal or threonine-deficient medium supplemented with varying levels of 3-HNV. […] The inhibitory effect of 3-HNV was not observed on the growth of HeLa, MEF or 3T3 cells.

In assay [3] the test system is HeLa cells. Briefly: HeLa cell growth with 3-HNV. Format: cell-based. The procedure:
as §1

In assay [4] the test system is morula-staged embryos. Briefly: Early mouse embryo development (morula to blastocyst) in culture with 3-HNV. The class given is cell-based. The method, then: The availability of 3-HNV as a cell-permeable threonine analog facilitated experiments using living mouse embryos. Before testing the effects of 3-HNV on early mouse embryo development, in situ hybridization and immunohistochemical staining assays were performed to investigate the expression pattern of both TDH mRNA and TDH enzyme (16). […] Knowing that the ICM represents the in vivo source of ES cells (17), we hypothesized that the early development of mouse embryos might be inhibited by 3-HNV. […] These studies indicate that ICM cells of the early mouse embryo, like cultured mouse ES cells, are critically dependent upon threonine catabolism.
• 1. B. Alberts et al., Molecular Biology of the Cell (Garland Publishing, Inc., New York, ed. March, 2007), pp. 1-1392. • 2. A. G. Smith, Annu. Rev. Cell Dev. Biol. 17, 435 (2001). • 3. B. P. Tu et al., Proc. Natl. Acad. Sci. U.S.A. 104, 16886 (2007). • 4. L. Warren, J. M. Buchanan, J. Biol. Chem. 229, 613 (1957). • H. Weissbach, A. Peterkofsky, B. G. Redfield, H. Dickerman, J. Biol. Chem. 238, 3318 (1963). • 6. E. A. Phear, D. M. Greenberg, J. Am. Chem. Soc. 79, 3737 (1957). • 7. Total RNA was extracted with RNA STAT-60 (Tel-Test) and converted into cDNA with oligo(dT) primer using the SuperScript first-strand synthesis kit (Invitrogen). PCR was performed on an AB 7900HT fast real-time PCR system (Applied Bioscience) using a TDH specific primer pair. • 8. R. A. Dale, Biochim. Biophys. Acta. 544, 496 (1978). • 9. TDH cDNA with an in-frame Flag tag sequence fused to the carboxyl terminus of the enzyme was cloned into mammalian expression vector pcDNA3.1 at EcoR1/Xho1 sites. The resultant vector was transfected into 293T cells using Lipofectamine 2000 reagent (Invitrogen). Stable transformants were selected in media containing 500 μg/ml G418 and characterized by western blotting analysis using anti-Flag antibody (Sigma). To extract mitochondrial protein, cells were homogenized in the buffer containing 10 mM Tris-HCl (pH 7.5), 250 mM sucrose and 2 mM EDTA on ice with a glass pestle douncer. Mitochondria were isolated from homogenates through a two-step differential centrifugation procedure at 600 and 11,000 g for 10 m each at 4° C. Mitochondrial protein was then extracted in 100 mM potassium phosphate buffer (pH 7.4) containing 0.1% NP-40, 10 mM DTT and 1× protease inhibitor cocktail (Sigma). TDH activity was determined by measuring the rate of formation of NADH at 25° C. The assay mixture contained 100 mM Tris-HCl (pH 8.0), 25 mM L-threonine, 5 mM NAD and 25 mM NaCl in a final volume of […] The reaction was initiated by the addition of mitochondrial protein extract, and absorbance of the reaction mixture at 340 nM was recorded continuously on a microplate reader. • 10. […]

Assay [5] relates to MEF cells. Nature of the assay: MEF cell growth with 3-HNV. Format: cell-based, mouse. The method, then: as §1

Each structure is given as a SMILES string.

As for `CCC(O)[C@H](N)C(=O)O` (stereo partly drawn) [3-HNV, 3-hydroxynorvaline], in assay [1] (normal culture medium), the “ES cell colony formation” value is “inhibited ES cell colony formation”. The “complementation of the absence of threonine (ES cell colony formation)” value in assay [1] (threonine-deficient medium) is recorded as “fail to complement the absence of threonine”. The “inhibitory effect on cell growth” value in assay [2], in assay [3] and in assay [5] was “not observed” throughout. The “conversion of morula-staged embryos into cavitated blastocysts” value in assay [4] (100 uM 3-HNV) is on record as “A more modest degree of inhibition”; in assay [4] (300 uM 3-HNV), “blocked the conversion of morula-staged embryos into cavitated blastocysts”; in assay [4] (1 mM 3-HNV), “blocked the conversion of morula-staged embryos into cavitated blastocysts”. Further, in assay [4] (1 mM 3-HNV, medium supplemented by 4 mM threonine), the “embryo development with threonine supplementation” value is given as “Complete rescue of normal development”.
